# Assay results from PubChem BioAssay AID248 (DTP/NCI, 2004).
# Values joined by “and” are separate entries in the source; they are usually repeats but may differ in a detail not shown here. Identical values can stand only once. Toxic doses and inconclusive results are not listed.
# Test system: L1210 leukemia ip in BDF1 mice, survival T/C
# Test: NCI In Vivo Anticancer Drug Screen. Data for tumor model L1210 Leukemia (intraperitoneal) in B6D2F1 (BDF1) mice
# Settings: endpoint: mean survival time, higher = longer survival
# How it was run: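 Transplantable tumor model; survival measured in treated vs vehicle control mice. Value = treated/control.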
# [1] = dose: 100.0 mg/kg/injection, schedule: Q01DX001 (ip), vehicle: carboxymethylcellulose (CMC)
# [2] = dose: 200.0 mg/kg/injection, schedule: Q01DX001 (ip), vehicle: carboxymethylcellulose (CMC)
# [3] = dose: 100.0 mg/kg/injection, schedule: Q04DX003 (ip), vehicle: saline
# [4] = dose: 200.0 mg/kg/injection, schedule: Q04DX003 (ip), vehicle: saline
# [5] = dose: 400.0 mg/kg/injection, schedule: Q04DX003 (ip), vehicle: saline
# [6] = dose: 50.0 mg/kg/injection, schedule: Q04DX002 (ip), vehicle: Klucel (hydroxypropylcellulose) (HPC)
# [7] = dose: 100.0 mg/kg/injection, schedule: Q04DX002 (ip), vehicle: Klucel (hydroxypropylcellulose) (HPC)
# [8] = dose: 200.0 mg/kg/injection, schedule: Q04DX002 (ip), vehicle: Klucel (hydroxypropylcellulose) (HPC)
# [9] = dose: 100.0 mg/kg/injection, schedule: Q01DX001 (ip), vehicle: saline
# [10] = dose: 200.0 mg/kg/injection, schedule: Q01DX001 (ip), vehicle: saline
# [11] = dose: 400.0 mg/kg/injection, schedule: Q01DX001 (ip), vehicle: saline
# [12] = dose: 25.0 mg/kg/injection, schedule: Q04DX002 (ip), vehicle: Klucel (hydroxypropylcellulose) (HPC)
# [13] = dose: 100.0 mg/kg/injection, schedule: Q04DX002 (ip), vehicle: saline
# [14] = dose: 100.0 mg/kg/injection, schedule: Q04DX003 (ip), vehicle: Klucel (hydroxypropylcellulose) (HPC)
# [15] = dose: 200.0 mg/kg/injection, schedule: Q04DX003 (ip), vehicle: Klucel (hydroxypropylcellulose) (HPC)
# [16] = dose: 400.0 mg/kg/injection, schedule: Q04DX003 (ip), vehicle: Klucel (hydroxypropylcellulose) (HPC)
# [17] = dose: 100.0 mg/kg/injection, schedule: Q01DX009 (ip), vehicle: Klucel (hydroxypropylcellulose) (HPC)
# [18] = dose: 200.0 mg/kg/injection, schedule: Q01DX009 (ip), vehicle: Klucel (hydroxypropylcellulose) (HPC)
# [19] = dose: 100.0 mg/kg/injection, schedule: Q01DX009 (ip), vehicle: saline
# [20] = dose: 200.0 mg/kg/injection, schedule: Q01DX009 (ip), vehicle: saline
# [21] = dose: 50.0 mg/kg/injection, schedule: Q01DX009 (ip), vehicle: saline
structure (smiles),measurement,setting,value
O=NN(CCCl)C(=O)Nc1ccc(Cl)c(Cl)c1,T/C,"dose: 5.0 mg/kg/injection, schedule: Q01DX009 (ip), vehicle: carboxymethylcellulose (CMC)",121 % of control
same,T/C,"dose: 8.0 mg/kg/injection, schedule: Q01DX009 (ip), vehicle: carboxymethylcellulose (CMC)",114 % of control
same,T/C,"dose: 17.0 mg/kg/injection, schedule: Q01DX015 (ip), vehicle: carboxymethylcellulose (CMC)",114 % of control
same,T/C,"dose: 26.0 mg/kg/injection, schedule: Q01DX015 (ip), vehicle: carboxymethylcellulose (CMC)",163 % of control and 167 % of control
same,T/C,"dose: 39.0 mg/kg/injection, schedule: Q01DX015 (ip), vehicle: carboxymethylcellulose (CMC)",119 % of control and 121 % of control
same,T/C,"dose: 58.0 mg/kg/injection, schedule: Q01DX015 (ip), vehicle: carboxymethylcellulose (CMC)",117 % of control and 89 % of control
same,T/C,[1],116 % of control
same,T/C,[2],161 % of control
same,T/C,"dose: 300.0 mg/kg/injection, schedule: Q01DX001 (ip), vehicle: carboxymethylcellulose (CMC)",89 % of control
CCN(CC)CCOC(=O)c1cc(=O)n(CCC(C)C)c2ccccc12,T/C,[3],113 % of control
same,T/C,[4],107 % of control
same,T/C,[5],101 % of control
Cc1ccc(S(=O)(=O)N/N=C2/CC3CCCCCCC23)cc1 (stereo not given),T/C,[6],104 % of control
same,T/C,[7],97 % of control
same,T/C,[8],111 % of control
Nc1ccc(C(=O)O)cn1,T/C,"dose: 50.0 mg/kg/injection, schedule: Q01DX001 (ip), vehicle: saline",96 % of control
same,T/C,[9],106 % of control
same,T/C,[10],100 % of control
CC1(c2ccc(N(CCCl)CCCl)cc2)NC(=O)NC1=O (stereo not given),T/C,"dose: 12.5 mg/kg/injection, schedule: Q04DX003 (ip), vehicle: saline",98 % of control
same,T/C,"dose: 25.0 mg/kg/injection, schedule: Q04DX003 (ip), vehicle: saline",103 % of control
same,T/C,"dose: 50.0 mg/kg/injection, schedule: Q04DX003 (ip), vehicle: saline",103 % of control
same,T/C,[3],113 % of control
same,T/C,[4],121 % of control
Nc1cc2c(c(Cl)c1Br)-c1ccccc1C2=O,T/C,[9],96 % of control
same,T/C,[10],90 % of control
same,T/C,[11],94 % of control
Nc1nc(Cl)nc2c1ncn2C1CC(O)C(CO)O1 (stereo not given),T/C,"dose: 44.4 mg/kg/injection, schedule: Q01DX001 (ip), vehicle: carboxymethylcellulose (CMC)",118 % of control
same,T/C,"dose: 50.0 mg/kg/injection, schedule: Q01DX001 (ip), vehicle: carboxymethylcellulose (CMC)",109 % of control
same,T/C,"dose: 66.6 mg/kg/injection, schedule: Q01DX001 (ip), vehicle: carboxymethylcellulose (CMC)",112 % of control
same,T/C,[1],109 % of control and 118 % of control
same,T/C,[2],120 % of control and 124 % of control
same,T/C,"dose: 400.0 mg/kg/injection, schedule: Q01DX001 (ip), vehicle: carboxymethylcellulose (CMC)",102 % of control
CN(C)c1ccc(/C=N/NC(=S)Nc2cccc3cccnc23)cc1,T/C,[9],105 % of control
same,T/C,[10],102 % of control
same,T/C,[11],96 % of control
O=C(OCc1ccccc1CN1CCOCC1)c1cccc(Br)c1,T/C,[12],93 % of control
same,T/C,[6],95 % of control and 108 % of control
same,T/C,[7],108 % of control
same,T/C,[8],108 % of control and 92 % of control
NC(CCl)=NCCOC12CC3CC(CC(C3)C1)C2,T/C,"dose: 25.0 mg/kg/injection, schedule: Q04DX002 (ip), vehicle: saline",94 % of control
same,T/C,"dose: 50.0 mg/kg/injection, schedule: Q04DX002 (ip), vehicle: saline",112 % of control
same,T/C,[13],96 % of control and 87 % of control
COc1cc(Cn2cccc2/C=C(\C#N)C(N)=O)cc(OC)c1,T/C,[12],94 % of control
same,T/C,[6],97 % of control
same,T/C,[7],105 % of control
O=[N+]([O-])c1cc(S(=O)(=O)O)c(Nc2ccccc2)cc1NCCO,T/C,[14],91 % of control
same,T/C,[15],91 % of control
same,T/C,[16],90 % of control
C(=N/N=C(/C(=N/N=C/c1ccccc1)c1ccccc1)c1ccccc1)\c1ccccc1,T/C,[9],94 % of control
same,T/C,[10],95 % of control
same,T/C,[11],97 % of control
CCCCCCCC(O)CCC (stereo not given),T/C,[17],94 % of control
same,T/C,[14],100 % of control
same,T/C,[18],104 % of control
same,T/C,[15],97 % of control
same,T/C,[16],92 % of control
CC(N)(CO)CO,T/C,[19],114 % of control
same,T/C,[13],90 % of control
same,T/C,[20],122 % of control
same,T/C,"dose: 200.0 mg/kg/injection, schedule: Q04DX002 (ip), vehicle: saline",103 % of control
same,T/C,"dose: 400.0 mg/kg/injection, schedule: Q01DX009 (ip), vehicle: saline",100 % of control
same,T/C,"dose: 400.0 mg/kg/injection, schedule: Q04DX002 (ip), vehicle: saline",103 % of control
COC(=O)c1ccc(N)cc1O,T/C,"dose: 25.0 mg/kg/injection, schedule: Q01DX009 (ip), vehicle: Klucel (hydroxypropylcellulose) (HPC)",101 % of control
same,T/C,"dose: 50.0 mg/kg/injection, schedule: Q01DX009 (ip), vehicle: Klucel (hydroxypropylcellulose) (HPC)",106 % of control
same,T/C,[17],99 % of control and 101 % of control
same,T/C,[14],98 % of control
same,T/C,[18],105 % of control
same,T/C,[15],102 % of control
same,T/C,[16],93 % of control
CC(C)c1ccc(C2(C)CCCCC2=O)cc1 (stereo not given),T/C,"dose: 100.0 mg/kg/injection, schedule: Q01DX001 (ip), vehicle: other",101 % of control
same,T/C,"dose: 200.0 mg/kg/injection, schedule: Q01DX001 (ip), vehicle: other",103 % of control
same,T/C,"dose: 400.0 mg/kg/injection, schedule: Q01DX001 (ip), vehicle: other",93 % of control
CCOC(=O)CCC(C(=O)OCC)C(=O)OCC,T/C,"dose: 100.0 mg/kg/injection, schedule: Q01DX009 (ip), vehicle: saline with Tween-80",86 % of control
same,T/C,"dose: 100.0 mg/kg/injection, schedule: Q04DX003 (ip), vehicle: saline with Tween-80",106 % of control
same,T/C,"dose: 200.0 mg/kg/injection, schedule: Q01DX009 (ip), vehicle: saline with Tween-80",88 % of control
same,T/C,"dose: 200.0 mg/kg/injection, schedule: Q04DX003 (ip), vehicle: saline with Tween-80",103 % of control
same,T/C,"dose: 400.0 mg/kg/injection, schedule: Q01DX009 (ip), vehicle: saline with Tween-80",88 % of control
same,T/C,"dose: 400.0 mg/kg/injection, schedule: Q04DX003 (ip), vehicle: saline with Tween-80",94 % of control
CC(=O)NC1C(=O)NS(=O)(=O)C1c1ccccc1 (stereo not given),T/C,[21],96 % of control and 97 % of control
same,T/C,[9],104 % of control and 92 % of control
same,T/C,[19],97 % of control and 94 % of control
same,T/C,[10],92 % of control
same,T/C,[20],94 % of control and 91 % of control
same,T/C,[11],92 % of control
Cc1c(O)cccc1N(C)C,T/C,[9],112 % of control
same,T/C,"dose: 100.0 mg/kg/injection, schedule: Q04DX003 (ip), vehicle: acetone",111 % of control
same,T/C,[10],105 % of control
same,T/C,"dose: 200.0 mg/kg/injection, schedule: Q04DX003 (ip), vehicle: acetone",106 % of control
same,T/C,[4],88 % of control
same,T/C,[11],91 % of control
same,T/C,"dose: 400.0 mg/kg/injection, schedule: Q04DX003 (ip), vehicle: acetone",102 % of control
same,T/C,[5],90 % of control
O=S1(=O)CCCC1C(Cl)c1ccccc1 (stereo not given),T/C,"dose: 50.0 mg/kg/injection, schedule: Q01DX001 (ip), vehicle: Klucel (hydroxypropylcellulose) (HPC)",92 % of control
same,T/C,"dose: 100.0 mg/kg/injection, schedule: Q01DX001 (ip), vehicle: Klucel (hydroxypropylcellulose) (HPC)",97 % of control
COC1c2cnc(C)n2C=CN1C(C)=O (stereo not given),T/C,"dose: 25.0 mg/kg/injection, schedule: Q01DX009 (ip), vehicle: saline",102 % of control
same,T/C,[21],100 % of control
same,T/C,[19],91 % of control
same,T/C,[3],108 % of control
same,T/C,[4],98 % of control
C[n+]1ccc(Nc2ccc(NC(=O)c3ccc(N)cc3)cc2)cc1,T/C,"dose: 12.5 mg/kg/injection, schedule: Q01DX009 (ip), vehicle: water",117 % of control
same,T/C,"dose: 25.0 mg/kg/injection, schedule: Q01DX009 (ip), vehicle: water",107 % of control
same,T/C,"dose: 50.0 mg/kg/injection, schedule: Q01DX009 (ip), vehicle: water",112 % of control
Cc1ccc(S(=O)(=O)N(CCO)CCO)cc1,T/C,[14],101 % of control
same,T/C,[15],100 % of control
same,T/C,[16],92 % of control
